What was measured:
human H3 receptor [1] = biological target: T1, human H3 receptor (Homo sapiens, UniProt Q9Y5N1); test: In vitro H3 binding assay (3H-N-α-methyl-histamine competition binding); settings: membranes of CHO-K1 cells expressing human H3 receptor; 2 nM 3H-NαMH; read-out: hH3 binding IC50
T1 construct: expressed in transfected cells
Outline: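 Membranes from CHO-K1 cells stably expressing human H3 (5 μg/well) incubated 1 h at room temperature with compound and 2 nM ³H-NαMH in 50 mM Tris-HCl pH 7.4, 5 mM MgCl2; non-specific binding defined with 1 μM RαMH. Bound radioactivity measured by filtration and scintillation; IC50 from seven-point curves by variable-slope sigmoidal regression.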

human H3 receptor [2] = biological target: T1, human H3 receptor; test: In vitro H3 functional assay (cAMP response element driven luciferase reporter); format: cell-based; settings: CHO(dhfr+)-cre-luc cells expressing human H3 receptor; RαMH 10 nM, forskolin 1 μM; read-out: hH3 functional IC50
Outline: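 CHO-cre-luc cells stably expressing human H3 were preincubated 5 min with compound, then treated with RαMH (10 nM), IBMX (500 μM) and forskolin (1 μM) for 90 min at 37 °C. CRE-luciferase luminescence was read; IC50 from ten-point half-log curves in duplicate, four-parameter fit.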

T1 sequence (Q9Y5N1 whole entry): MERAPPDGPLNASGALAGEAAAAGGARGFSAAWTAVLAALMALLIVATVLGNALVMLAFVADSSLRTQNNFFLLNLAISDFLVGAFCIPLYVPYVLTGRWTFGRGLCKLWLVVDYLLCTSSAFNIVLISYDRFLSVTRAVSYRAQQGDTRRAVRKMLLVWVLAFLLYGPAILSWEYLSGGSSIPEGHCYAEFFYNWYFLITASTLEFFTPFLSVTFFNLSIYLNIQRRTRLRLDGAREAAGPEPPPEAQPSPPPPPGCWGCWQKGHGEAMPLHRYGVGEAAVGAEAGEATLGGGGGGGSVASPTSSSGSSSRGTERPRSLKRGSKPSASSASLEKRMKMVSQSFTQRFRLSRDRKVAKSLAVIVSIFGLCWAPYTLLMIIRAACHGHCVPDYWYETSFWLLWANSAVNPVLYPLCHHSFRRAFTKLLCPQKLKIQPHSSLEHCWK

IC50 (human H3 receptor [1]) [nM] | IC50 (human H3 receptor [2]) [nM] | Structure (SMILES)
3 | 1 | O=C(NCc1ccc2[nH]ccc2c1)c1ccc2c(c1)CCN(C1CCC1)CC2 [Example 74, N-((1H-Indol-5-yl)methyl)-3-cyclobutyl-2,3,4,5-tetrahydro-1H-benzo[d]azepine-7-carboxamide]
21 | 4 | O=C(NCc1ccc2c(c1)CCN(C1CCC1)CC2)c1cnccn1 [Example 181, N-((3-cyclobutyl-2,3,4,5-tetrahydro-1H-benzo[d]azepin-7-yl)methyl)pyrazine-2-carboxamide]
1 | 0.7 | Cn1nccc1CNC(=O)c1ccc2c(c1)CCN(C1CCC1)CC2 [Example 1, 3-cyclobutyl-N-((1-methyl-1H-pyrazol-5-yl)methyl)-2,3,4,5-tetrahydro-1H-benzo[d]azepine-7-carboxamide]
16 | 1 | CC(C)(O)c1ccc(C(=O)NCc2ccc3c(c2)CCN(C2CCC2)CC3)cn1 [Example 239, N-((3-cyclobutyl-2,3,4,5-tetrahydro-1H-benzo[d]azepin-7-yl)methyl)-6-(2-hydroxypropan-2-yl)nicotinamide]
4 | 2 | O=C(NCc1nc2ccccc2s1)c1ccc2c(c1)CCN(C1CCC1)CC2 [Example 78, N-(Benzo[d]thiazol-2-ylmethyl)-3-cyclobutyl-2,3,4,5-tetrahydro-1H-benzo[d]azepine-7-carboxamide]
22 | 31 | O=C(NCC1CCNCC1)c1ccc2c(c1)CCN(C1CCC1)CC2 [Example 5, 3-Cyclobutyl-N-(piperidin-4-ylmethyl)-2,3,4,5-tetrahydro-1H-benzo[d]azepine-7-carboxamide]
0.3 | 3 | O=C(NCc1ccc2c(c1)CCN(C1CCC1)CC2)c1cnc(N2CCCC2)nc1 [Example 256, N-((3-cyclobutyl-2,3,4,5-tetrahydro-1H-benzo[d]azepin-7-yl)methyl)-2-(pyrrolidin-1-yl)pyrimidine-5-carboxamide]
12 | 1 | Cn1nc(CNC(=O)c2ccc3c(c2)CCN(C2CCC2)CC3)c2ccccc21 [Example 73, 3-Cyclobutyl-N-((1-methyl-1H-indazol-3-yl)methyl)-2,3,4,5-tetrahydro-1H-benzo[d]azepine-7-carboxamide]
0.6 | 3 | O=C(NCc1ccc2c(c1)CCN(C1CC(F)C1)CC2)c1ccc(N2CCCC2)nc1 (stereo not drawn) [Example 242, N-((3-(3-fluorocyclobutyl)-2,3,4,5-tetrahydro-1H-benzo[d]azepin-7-yl)methyl)-6-(pyrrolidin-1-yl)nicotinamide]
0.4 | 0.8 | O=C(NCc1ccc2nccn2c1)c1ccc2c(c1)CCN(C1CCC1)CC2 [Example 81, 3-Cyclobutyl-N-(imidazo[1,2-a]pyridin-6-ylmethyl)-2,3,4,5-tetrahydro-1H-benzo[d]azepine-7-carboxamide]
14 | 4 | O=C(NCC1CCS(=O)(=O)C1)c1ccc2c(c1)CCN(C1CCC1)CC2 (stereo not drawn) [Example 171, 3-Cyclobutyl-2,3,4,5-tetrahydro-1H-benzo[d]azepine-7-carboxylic acid (1,1-dioxo-tetrahydro-1lambda*6*-thiophen-3-ylmethyl)-amide]
11 | 1 | Cn1ccc(CNC(=O)c2ccc3c(c2)CCN(C2CCC2)CC3)n1 [Example 103, 3-Cyclobutyl-N-((1-methyl-1H-pyrazol-3-yl)methyl)-2,3,4,5-tetrahydro-1H-benzo[d]azepine-7-carboxamide]
5 | 3 | O=C(NCc1cccc(Cn2cccn2)c1)c1ccc2c(c1)CCN(C1CCC1)CC2 [Example 70, N-(3-((1H-Pyrazol-1-yl)methyl)benzyl)-3-cyclobutyl-2,3,4,5-tetrahydro-1H-benzo[d]azepine-7-carboxamide]
6 | 3 | O=C(NCc1cccc(C(F)(F)F)c1)c1ccc2c(c1)CCN(C1CCC1)CC2 [Example 59, 3-Cyclobutyl-N-(3-(trifluoromethyl)benzyl)-2,3,4,5-tetrahydro-1H-benzo[d]azepine-7-carboxamide]
2 | 0.5 | CCn1nccc1CNC(=O)c1ccc2c(c1)CCN(C1CCC1)CC2 [Example 100, 3-cyclobutyl-N-((1-ethyl-1H-pyrazol-5-yl)methyl)-2,3,4,5-tetrahydro-1H-benzo[d]azepine-7-carboxamide]
3 | 1 | Cn1ccc2c(CNC(=O)c3ccc4c(c3)CCN(C3CCC3)CC4)cccc21 [Example 77, 3-Cyclobutyl-N-((1-methyl-1H-indol-4-yl)methyl)-2,3,4,5-tetrahydro-1H-benzo[d]azepine-7-carboxamide]
11 | 3 | Cn1nccc1NC(=O)Cc1ccc2c(c1)CCN(C1CCC1)CC2 [Example 221, 2-(3-cyclobutyl-2,3,4,5-tetrahydro-1H-benzo[d]azepin-7-yl)-N-(1-methyl-1H-pyrazol-5-yl)acetamide]
13 | 8 | O=C(NC1CCCC1)c1ccc2c(c1)CCN(C1CCC1)CC2 [Example 29, 3-Cyclobutyl-N-cyclopentyl-2,3,4,5-tetrahydro-1H-benzo[d]azepine-7-carboxamide]
13 | 2 | O=C(NCc1ccc2c(c1)CCN(C1CCC1)CC2)c1cncc(F)c1 [Example 191, N-((3-cyclobutyl-2,3,4,5-tetrahydro-1H-benzo[d]azepin-7-yl)methyl)-5-fluoronicotinamide]
12 | 2 | O=C(NCC1CCCO1)c1ccc2c(c1)CCN(C1CCC1)CC2 (stereo not drawn) [Example 36, 3-cyclobutyl-N-((tetrahydrofuran-2-yl)methyl)-2,3,4,5-tetrahydro-1H-benzo[d]azepine-7-carboxamide]
9 | 30 | O=C(NCc1cccnc1)c1ccc2c(c1)CCN(C1CCC1)CC2 [Example 42, 3-Cyclobutyl-N-(pyridin-3-ylmethyl)-2,3,4,5-tetrahydro-1H-benzo[d]azepine-7-carboxamide]
